These results are taken from patent US20050043262A1, “Novel specific inhibitor of the cyclin kinase inhibitor p21Waf1/Cip1 and methods of using the inhibitor” (priority 2000, published 2005).

One data set has as its system MAPK. Briefly: MAPK level (immunoblot) in ODN-transfected breast cancer cells. The note with it: ODN-transfected cells compared with controls. Type of data set: cell-based, human. The procedure:
Due to the high levels of p21 in these two human breast cancer cell lines, it was reasoned that, in a manner similar to their effect in VSM cells (Weiss, R. H., Joo, A., and Randour, C., J. Biol. Chem., 275: 10285-10290, 2000), antisense ODNs to p21 may result in increased apoptosis and/or cell cycle arrest. […] T47D and MCF7 cells were lipofected with either antisense p21 ODN (200 or 400 nM), the control ODN at the same concentrations, or lipofectin alone (no DNA). MCF7 and T47D cells were grown to confluence, serum starved for 24 hours, and lipofected with antisense p21 or control ODN or lipofectin only. cont refers to nontransfected cells. The cells were subsequently serum stimulated for another 24 hours. A and B, the cells were lysed, and equal protein quantities (20 μg) were electrophoresed and immunoblotted with p21 antibody. The same lysate was immunoblotted with MAPK antibody as a loading control. Density of p21 and MAPK bands was determined and reported as a ratio. C, the cells were transfected as described in A, fixed, subjected to immunohistochemistry with p21 antibody as described in “Immunohistochemistry” in Example VI, and examined under visible light at X400. Control cells (FIG. 30, cont) were not transfected. […] There was no effect of lipofectin alone when compared with no transfection (control).
In general terms: A western blot detects proteins with antibodies after separation by electrophoresis.

In the next data set the test system is T47D cells. In words: Nuclear morphology (Hoechst 33258) in T47D cells. The note with it: serum stimulated 24 hours after lipofection. Type of data set: cell-based, human. The procedure:
(§1) Evaluation of Nuclear Morphology: Cells were seeded in 6-well culture dishes and treated with ODNs as described. The cells were then immersed in methanol for at least 10 min. Cells were stained in 1 μg/ml Hoechst 33258 in water with 1% nonfat dry milk. After staining for 8-10 min, the cells were rinsed in water and dried completely. Nuclear morphology was visually evaluated by fluorescence microscopy.
(§2) Apoptosis is the end result of an elaborate cascade of molecular events that ultimately result in programmed cell death; thus, a variety of tests are generally used to determine whether apoptosis is occurring. The methods to study apoptosis were employed: (a) assessment of nuclear morphology; (b) PARP cleavage; and (c) caspase-3 cleavage. Serum-starved cells were transfected with antisense p21 ODN or the control ODN, fixed, stained with Hoechst 33258, and examined under UV light. MCF7 and T47D cells were grown to confluence, serum starved for 24 hours, and lipofected with antisense p21 or control ODN. The cells were subsequently serum stimulated for another 24 hours, fixed, stained with Hoechst 33258, and examined under UV light at X400.

A further data set relates to MCF7 cells. In words: Nuclear morphology (Hoechst 33258) in MCF7 cells. The note with it: serum stimulated 24 hours after lipofection. Type of data set: cell-based, human. The procedure:
as §1, §2

The test system of the next data set is p27^Kip1. In words: p27Kip1 protein level by Western blot in A10 VSM cells. Type of data set: cell-based, rat. The note with it: PMA for 4 hours. The procedure:
Western blots: Cells were grown to confluence in 6 cm culture dishes and serum deprived. After transfection and or treatment with appropriate agonist, the cells were washed with phosphate-buffered saline and lysed in lysis buffer and the supernatant was Western blotted as described (Weiss et al., 1998 Am. J. Physiol., 274, p. C1521-C1529).
To check for specificity of protein inhibition by the antisense p21^Waf1/Cip1 oligodeoxynucleotide (SEQ. ID NO.: 1), protein levels of p21^Waf1/Cip1 and p27^Kip1 after transfection with antisense p21^Waf1/Cip1 oligodeoxynucleotide (SEQ. ID NO.:1) were examined. In these experiments the ability of antisense oligodeoxynucleotides (SEQ. ID NO.:1) to inhibit maximally stimulated CKI expression (see FIG. 4) was assessed. The cells were stimulated with PMA for 4 hours at various times after overnight serum starvation.
At the times indicated after the overnight incubation (in hours), the medium was changed to quiescence medium and the cells were stimulated with PMA for 4 hours to show maximal p21^Waf1/Cip1 expression (FIG. 6a). The lysates were immunoblotted with (a) p21^Waf1/Cip1 or p27^Kip1 antibody or (b) α-actin antibody. […]

The next data set has as its system cyclin E/cdk 2. In words: Cyclin E immunoprecipitation / cdk 2 immunoblot in A10 VSM cells. Type of data set: cell-based, rat. The note with it: PDGF-BB 30 ng/ml. The procedure: Cells were transfected with p21^Waf1/Cip1 antisense (SEQ. ID NO.:1) or sense oligodeoxynucleotide (SEQ. ID NO.:2), allowed to grow overnight in serum-free media. After overnight incubation in serum-free medium, the cells were stimulated with PDGF-BB (30 ng/ml) for the times indicated. The cells were subsequently immunoprecipitated with either cyclin D1 or cyclin E and immunoblotted with cdk 4 or cdk 2, respectively.

The test system of another data set is cyclinE/cdk2. In words: Cyclin E immunoprecipitation / cdk2 immunoblot in A431 cells. Type of data set: cell-based, human. The note with it: 10 min to 6 hours of PDGF exposure. The source says: Cyclin/cdk interactions occur after growth factor stimulation and serve to integrate such responses with the CKIs and transmit them to the Rb/E2F systems, which leads to mitogenic signal transmission. The cyclin D1/cdk 4 interaction occurs early after growth factor stimulation (reviewed in (Arellano and Moreno, 1997 Int. J. Biochem. Cell Biol., 29, p. 559-573)), while the cyclinE/cdk2 interaction occurs late in G1 and is thought to have a role in triggering the actual onset of DNA replication after the cells have passed the restriction point (reviewed in (Sherr and Roberts, 1995: Genes Dev., 9, p. 1149-1163)). A431 cells were transfected with p21^Waf1/Cip1 antisense (SEQ. ID NO.:1) or sense (SEQ. ID NO.:2) oligodeoxynucleotide, allowed to grow overnight in serum-free media, and then stimulated for various times with PDGF-BB. The cells were subsequently immunoprecipitated with either cyclinD1 or cyclinE and immunoblotted with cdk4 or cdk2, respectively. A lysate sample, showing the mobility of the immunoprecipitated cdks, confirmed the identity of the cdks. A431 cells were transfected with antisense (SEQ. ID NO.:1) or sense p21^Waf1/Cip1 (SEQ. ID NO.:2) oligonucleotides. […]

As to “5′-ATC-CCC-AGC-CGG-TTC-TGA-CAT-3′ (antisense ATCCCCAGCCGGTTCTGACAT; listed as DNA, chemistry not fully specified) [antisense p21 ODN]”, in the data set with MAPK, the MAPK levels result was “lack of modulation”. Besides, the nuclear morphology result in the data set with T47D cells and in the data set on MCF7 cells was “nuclear morphological changes consistent with apoptosis” each time.

As to 5′-GACATCACCAGGATCGGACAT-3′, in the data set with p27^Kip1, the “p27^Kip1 protein” value is “slight decrease”. In addition, in the data set on cyclin E/cdk 2, the “cyclin E/cdk 2 interaction” value was “no change”. Moreover, the cyclinE/cdk2 association entry with cyclinE/cdk2 is “no effect”.
